Experimental data from paper PMC6001238, “Iterative Chemical Engineering of Vancomycin Leads to Novel Vancomycin Analogs With a High in Vitro Therapeutic Index” (Frontiers in Microbiology, 2018).
Converted amounts (≈) assume the structure as drawn. Read-outs that look alike come from different tables or passages of the source.

Tests used:
[1] = system: L1210, CEM and HeLa cell lines; assay: Cytostatic activity, average or summary over L1210, CEM and HeLa; type: cell-based; settings: average of L1210, CEM and HeLa; read-out: Toxicity (IC50) Average
Procedure: (§1) Murine leukemia (L1210), human T-lymphocyte (CEM) and the human cervix carcinoma (HeLa) cell line were suspended at 300,000–500,000 cells/mL of culture medium, and 100 μL of a cell suspension was added to 100 μL of an appropriate dilution of the test compounds in wells of 96-well microtiter plates. After incubation at 37°C for 2 (L1210), 3 (CEM), or 4 (HeLa) days, the cell number was determined using a Coulter counter. The IC50 was defined per cell type as the compound concentration required to inhibit cell proliferation by 50% compared to the negative control ([Glowacka et al., 2017]).

[2] = system: Murine leukemia (L1210) cells; assay: Cytostatic activity, L1210 cell proliferation; type: cell-based; settings: mean ± SD of three experiments; highest concentration tested 250 µM; 2 days; read-out: Toxicity (IC50) L1210
Procedure: as §1

[3] = system: E. faecalis VRE 6; assay: MIC, broth microdilution, vancomycin-resistant E. faecalis VRE 6 (VanA); type: cell-based, Enterococcus faecalis; settings: for MIC: Enterococcus faecalis VRE 6 (vancomycin-resistant), read-out: MIC; for MIC-fold improvement vs. vancomycin: VRE 6, ratio of MIC of vancomycin and MIC of analogue
Procedure: (§2) The minimum inhibitory concentration (MIC) was determined using the broth microdilution method according to the antimicrobial susceptibility testing standards of the clinical and laboratory standards institute ([Clinical and Laboratory Standards Institute [CLSI], 2012]). Ultrapure water and non-inoculated broth were used as controls. In one case, a final concentration of 10 μM vancomycin was included with the vancomycin analog or control antibiotic.

[4] = system: E. faecalis VRE 37; assay: MIC, broth microdilution, vancomycin-resistant E. faecalis VRE 37 (VanA); type: cell-based, Enterococcus faecalis; settings: for MIC: Enterococcus faecalis VRE 37 (vancomycin-resistant), read-out: MIC; for MIC-fold improvement vs. vancomycin: VRE 37, ratio of MIC of vancomycin and MIC of analogue
Procedure: as §2

[5] = system: MRSA KS89; assay: MIC, broth microdilution, MRSA KS89; type: cell-based, Staphylococcus aureus; settings: for MIC-fold improvement vs. vancomycin: ratio of MIC of vancomycin and MIC of analogue; for MIC: read-out: MIC
Procedure: as §2

[6] = system: human T-lymphocyte (CEM) cells; assay: Cytostatic activity, CEM cell proliferation; type: cell-based; settings: mean ± SD of three experiments; highest concentration tested 250 µM; 3 days; read-out: Toxicity (IC50) CEM
Procedure: as §1

[7] = system: MRSA KS6; assay: MIC, broth microdilution, MRSA KS6; type: cell-based, Staphylococcus aureus; settings: for MIC-fold improvement vs. vancomycin: MRSA KS6, ratio of MIC of vancomycin and MIC of analogue; for MIC: Staphylococcus aureus MRSA KS6, read-out: MIC
Procedure: as §2

[8] = system: E. faecalis VSE 1; assay: MIC, broth microdilution, vancomycin-sensitive E. faecalis (VSE 1); type: cell-based, Enterococcus faecalis; settings: for MIC: Enterococcus faecalis VSE 1 (vancomycin-sensitive), read-out: MIC; for MIC-fold improvement vs. vancomycin: VSE 1, ratio of MIC of vancomycin and MIC of analogue
Procedure: as §2

[9] = system: MRSA KS1; assay: MIC, broth microdilution, MRSA KS1; type: cell-based, Staphylococcus aureus; settings: for MIC-fold improvement vs. vancomycin: MRSA KS1, ratio of MIC of vancomycin and MIC of analogue; for MIC: Staphylococcus aureus MRSA KS1, read-out: MIC
Procedure: as §2

[10] = system: S. aureus VISA/HIP5827; assay: MIC, broth microdilution, vancomycin-intermediate S. aureus VISA HIP5827; type: cell-based, Staphylococcus aureus; settings: for MIC: Staphylococcus aureus VISA/HIP5827, read-out: MIC; for MIC-fold improvement vs. vancomycin: VISA/HIP5827, ratio of MIC of vancomycin and MIC of analogue
Procedure: as §2

[11] = system: E. faecalis VRE 53; assay: MIC, broth microdilution, vancomycin-resistant E. faecalis VRE 53 (VanA); type: cell-based, Enterococcus faecalis; settings: for MIC: Enterococcus faecalis VRE 53 (vancomycin-resistant), read-out: MIC; for MIC-fold improvement vs. vancomycin: VRE 53, ratio of MIC of vancomycin and MIC of analogue
Procedure: as §2

[12] = system: S. aureus VSSA (ATCC 6538); assay: MIC, broth microdilution, vancomycin-sensitive S. aureus (VSSA/MSSA, ATCC 6538); type: cell-based, Staphylococcus aureus; settings: for MIC: Staphylococcus aureus VSSA, read-out: MIC; for MIC-fold improvement vs. vancomycin: VSSA, ratio of MIC of vancomycin and MIC of analogue
Procedure: as §2

[13] = system: human cervix carcinoma (HeLa) cells; assay: Cytostatic activity, HeLa cell proliferation; type: cell-based; settings: mean ± SD of three experiments; highest concentration tested 250 µM; 4 days; read-out: Toxicity (IC50) HeLa
Procedure: as §1

[14] = system: S. aureus VRSA; assay: MIC, broth microdilution, vancomycin-resistant S. aureus (VRSA); type: cell-based, Staphylococcus aureus; settings: for MIC: Staphylococcus aureus VRSA, read-out: MIC; for MIC-fold improvement vs. vancomycin: VRSA, ratio of MIC of vancomycin and MIC of analogue
Procedure: as §2

[15] = system: E. faecalis VRE 29; assay: MIC, broth microdilution, vancomycin-resistant E. faecalis VRE 29 (VanA); type: cell-based, Enterococcus faecalis; settings: for MIC: Enterococcus faecalis VRE 29 (vancomycin-resistant), read-out: MIC; for MIC-fold improvement vs. vancomycin: VRE 29, ratio of MIC of vancomycin and MIC of analogue
Procedure: as §2

[16] = system: MRSA KS2; assay: MIC, broth microdilution, MRSA KS2; type: cell-based, Staphylococcus aureus; settings: for MIC-fold improvement vs. vancomycin: MRSA KS2, ratio of MIC of vancomycin and MIC of analogue; for MIC: Staphylococcus aureus MRSA KS2, read-out: MIC
Procedure: as §2

Row | Compound | IC50 [1] [µM] | IC50 [2] [µM] | MIC [3] [µM] | MIC-fold improvement vs. vancomycin [3] | MIC [4] [µM] | IC50 [6] [µM] | MIC-fold improvement vs. vancomycin [7] | MIC [7] [µM] | MIC [8] [µM] | MIC-fold improvement vs. vancomycin [8] | MIC-fold improvement vs. vancomycin [9] | MIC [9] [µM] | MIC [10] [µM] | MIC-fold improvement vs. vancomycin [10] | MIC [11] [µM] | MIC-fold improvement vs. vancomycin [11] | MIC [12] [µM] | MIC-fold improvement vs. vancomycin [12] | IC50 [13] [µM] | MIC [15] [µM] | further results
1 | CCCCCCn1cc(-c2ccc(NC(=O)CNC(=O)C3NC(=O)C4NC(=O)C(NC(=O)C5NC(=O)C(CC(N)=O)NC(=O)C(NC(=O)C(CC(C)C)NC)C(O)c6ccc(c(Cl)c6)Oc6cc5cc(c6OC5OC(CO)C(O)C(O)C5OC5CC(C)(N)C(O)C(C)O5)Oc5ccc(cc5Cl)C4O)c4ccc(O)c(c4)-c4c(O)cc(O)cc43)cc2)nn1 (stereo not drawn) [Vanc-92] | 75 | 95 ± 75 | 6.25 (≈ 10.8 µg/mL) | 32 | 6.25 (≈ 10.8 µg/mL) | 31 ± 7 | 4 | 0.20 (≈ 0.347 µg/mL) | 0.10 (≈ 0.173 µg/mL) | 16 | 4 | 0.20 (≈ 0.347 µg/mL) | 0.78 (≈ 1.35 µg/mL) | 8 | 25 (≈ 43.3 µg/mL) | 16 | 0.20 (≈ 0.347 µg/mL) | 4 | 98 ± 12 | 6.25 (≈ 10.8 µg/mL) | MIC-fold improvement vs. vancomycin [4]: 64; MIC-fold improvement vs. vancomycin ([5]; MRSA KS8 (head; KS89 in title)): 4; MIC ([5]; Staphylococcus aureus MRSA KS8 (head; KS89 in title)): 0.20 µM (≈ 0.347 µg/mL); MIC [14]: 0.78 µM (≈ 1.35 µg/mL); MIC-fold improvement vs. vancomycin [14]: 128; MIC-fold improvement vs. vancomycin [15]: 64; MIC-fold improvement vs. vancomycin [16]: 4; MIC [16]: 0.20 µM (≈ 0.347 µg/mL)
2 | CN[C@H](CC(C)C)C(=O)N[C@H]1C(=O)N[C@@H](CC(N)=O)C(=O)N[C@H]2C(=O)N[C@H]3C(=O)N[C@H](C(=O)N[C@H](C(=O)NCC(=O)Nc4ccc(C(F)(F)F)cc4)c4cc(O)cc(O)c4-c4cc3ccc4O)[C@H](O)c3ccc(c(Cl)c3)Oc3cc2cc(c3O[C@@H]2O[C@H](CO)[C@@H](O)[C@H](O)[C@H]2O[C@H]2C[C@](C)(N)[C@H](O)[C@H](C)O2)Oc2ccc(cc2Cl)[C@H]1O [Vanc-40] | > 250 | > 250 | 6.25 (≈ 10.3 µg/mL) | 32 | 12.5 (≈ 20.6 µg/mL) | > 250 | 2 | 0.39 (≈ 0.643 µg/mL) | 0.78 (≈ 1.29 µg/mL) | 2 | 2 | 0.39 (≈ 0.643 µg/mL) | 1.56 (≈ 2.57 µg/mL) | 4 | 25 (≈ 41.2 µg/mL) | 16 | 0.78 (≈ 1.29 µg/mL) | 1 | > 250 | 12.5 (≈ 20.6 µg/mL) | MIC-fold improvement vs. vancomycin ([5]; MRSA KS8): 2; MIC ([5]; Staphylococcus aureus MRSA KS8): 0.39 µM (≈ 0.643 µg/mL); MIC [14]: 3.13 µM (≈ 5.16 µg/mL); MIC-fold improvement vs. vancomycin [14]: 32; MIC-fold improvement vs. vancomycin [15]: 32; MIC-fold improvement vs. vancomycin [16]: 2; MIC [16]: 0.39 µM (≈ 0.643 µg/mL)
3 | CCCCCCc1ccc(NC(=O)CNC(=O)[C@H]2NC(=O)[C@H]3NC(=O)[C@H](NC(=O)[C@@H]4NC(=O)[C@H](CC(N)=O)NC(=O)[C@H](NC(=O)[C@@H](CC(C)C)NC)[C@H](O)c5ccc(c(Cl)c5)Oc5cc4cc(c5O[C@@H]4O[C@H](CO)[C@@H](O)[C@H](O)[C@H]4O[C@H]4C[C@](C)(N)[C@H](O)[C@H](C)O4)Oc4ccc(cc4Cl)[C@H]3O)c3ccc(O)c(c3)-c3c(O)cc(O)cc32)cc1 [Vanc-75] | 38 | 17 ± 7 | 3.13 (≈ 5.21 µg/mL) | 64 | 3.13 (≈ 5.21 µg/mL) | 15 ± 3 | 2 | 0.39 (≈ 0.65 µg/mL) | 0.78 (≈ 1.3 µg/mL) | 2 | 4 | 0.20 (≈ 0.333 µg/mL) | 0.78 (≈ 1.3 µg/mL) | 8 | 3.13 (≈ 5.21 µg/mL) | 128 | 0.78 (≈ 1.3 µg/mL) | 1 | 83 ± 4 | 3.13 (≈ 5.21 µg/mL) | MIC-fold improvement vs. vancomycin [4]: 128; MIC-fold improvement vs. vancomycin ([5]; MRSA KS8): 4; MIC ([5]; Staphylococcus aureus MRSA KS8): 0.20 µM (≈ 0.333 µg/mL); MIC [14]: 1.56 µM (≈ 2.6 µg/mL); MIC-fold improvement vs. vancomycin [14]: 64; MIC-fold improvement vs. vancomycin [15]: 128; MIC-fold improvement vs. vancomycin [16]: 4; MIC [16]: 0.20 µM (≈ 0.333 µg/mL)
4 | CN[C@H](CC(C)C)C(=O)N[C@H]1C(=O)N[C@@H](CC(N)=O)C(=O)N[C@H]2C(=O)N[C@H]3C(=O)N[C@H](C(=O)N[C@H](C(=O)NCCNC(=O)/C=C/c4ccc(OC)cc4)c4cc(O)cc(O)c4-c4cc3ccc4O)[C@H](O)c3ccc(c(Cl)c3)Oc3cc2cc(c3O[C@@H]2O[C@H](CO)[C@@H](O)[C@H](O)[C@H]2O[C@H]2C[C@](C)(N)[C@H](O)[C@H](C)O2)Oc2ccc(cc2Cl)[C@H]1O [Vanc-36] | 196 | > 250 | 1.56 (≈ 2.58 µg/mL) | 128 | 12.5 (≈ 20.6 µg/mL) | > 250 | 2 | 0.39 (≈ 0.644 µg/mL) | 0.39 (≈ 0.644 µg/mL) | 4 | 1 | 0.78 (≈ 1.29 µg/mL) | 0.39 (≈ 0.644 µg/mL) | 16 | 50 (≈ 82.6 µg/mL) | 8 | 0.39 (≈ 0.644 µg/mL) | 2 | 89 ± 18 | 12.5 (≈ 20.6 µg/mL) | MIC-fold improvement vs. vancomycin ([5]; MRSA KS8): 1; MIC ([5]; Staphylococcus aureus MRSA KS8): 0.78 µM (≈ 1.29 µg/mL); MIC-fold improvement vs. vancomycin [15]: 32; MIC-fold improvement vs. vancomycin [16]: 2; MIC [16]: 0.39 µM (≈ 0.644 µg/mL)
